From ChEMBL document CHEMBL4715697, “Synthesis and biological activity of benzamide DNA minor groove binders” (2016)

Tests used:
Type in all cases: functional
SK-MEL-28 = assay: Growth inhibition of human SK-MEL-28 cells assessed as cell growth at 1 uM incubated for 48 hrs by sulforhodamine B assay relative to control; conditions: read-out: Activity
PC-3 [1] = assay: Growth inhibition of human PC-3 cells assessed as cell growth at 0.1 uM incubated for 48 hrs by sulforhodamine B assay relative to control; conditions: read-out: Activity
HCT-116 = assay: Growth inhibition of human HCT-116 cells assessed as cell growth at 0.01 uM incubated for 48 hrs by sulforhodamine B assay relative to control; conditions: read-out: Activity
OVCAR-5 = assay: Growth inhibition of human OVCAR-5 cells assessed as cell growth at 1 uM incubated for 48 hrs by sulforhodamine B assay relative to control; conditions: read-out: Activity
OVCAR-3 [2] = assay: Growth inhibition of human OVCAR-3 cells assessed as cell growth at 100 uM incubated for 48 hrs by sulforhodamine B assay relative to control; conditions: read-out: Activity
PC-3 [3] = assay: Growth inhibition of human PC-3 cells incubated for 48 hrs by sulforhodamine B assay
IGROV-1 [4] = assay: Growth inhibition of human IGROV-1 cells assessed as cell growth at 1 uM incubated for 48 hrs by sulforhodamine B assay relative to control; conditions: read-out: Activity
SR [5] = assay: Growth inhibition of human SR cells assessed as cell growth at 1 uM incubated for 48 hrs by sulforhodamine B assay relative to control; conditions: read-out: Activity
CAKI-1 = assay: Growth inhibition of human CAKI-1 cells incubated for 48 hrs by sulforhodamine B assay
KM12 = assay: Growth inhibition of human KM12 cells assessed as cell growth at 100 uM incubated for 48 hrs by sulforhodamine B assay relative to control; conditions: read-out: Activity
SR [6] = assay: Growth inhibition of human SR cells assessed as cell growth at 0.1 uM incubated for 48 hrs by sulforhodamine B assay relative to control; conditions: read-out: Activity
NCI-H322M = assay: Growth inhibition of human NCI-H322M cells assessed as cell growth at 0.01 uM incubated for 48 hrs by sulforhodamine B assay relative to control; conditions: read-out: Activity
IGROV-1 [7] = assay: Growth inhibition of human IGROV-1 cells assessed as cell growth at 0.01 uM incubated for 48 hrs by sulforhodamine B assay relative to control; conditions: read-out: Activity
MDA-MB-435 [8] = assay: Growth inhibition of human MDA-MB-435 cells assessed as cell growth at 0.01 uM incubated for 48 hrs by sulforhodamine B assay relative to control; conditions: read-out: Activity
DU-145 = assay: Growth inhibition of human DU-145 cells assessed as cell growth at 1 uM incubated for 48 hrs by sulforhodamine B assay relative to control; conditions: read-out: Activity
BT-549 [9] = assay: Growth inhibition of human BT-549 cells assessed as cell growth at 0.1 uM incubated for 48 hrs by sulforhodamine B assay relative to control; conditions: read-out: Activity
SNB-19 = assay: Growth inhibition of human SNB-19 cells assessed as cell growth at 0.1 uM incubated for 48 hrs by sulforhodamine B assay relative to control; conditions: read-out: Activity
SF-268 = assay: Growth inhibition of human SF-268 cells assessed as cell growth at 0.01 uM incubated for 48 hrs by sulforhodamine B assay relative to control; conditions: read-out: Activity
T47D = assay: Growth inhibition of human T47D cells assessed as cell growth at 100 uM incubated for 48 hrs by sulforhodamine B assay relative to control; conditions: read-out: Activity
NCI-H226 = assay: Growth inhibition of human NCI-H226 cells assessed as cell growth at 100 uM incubated for 48 hrs by sulforhodamine B assay relative to control; conditions: read-out: Activity
SK-OV-3 = assay: Growth inhibition of human SK-OV-3 cells assessed as cell growth at 100 uM incubated for 48 hrs by sulforhodamine B assay relative to control; conditions: read-out: Activity
MCF7 = assay: Growth inhibition of human MCF7 cells assessed as cell growth at 0.1 uM incubated for 48 hrs by sulforhodamine B assay relative to control; conditions: read-out: Activity
SF-295 = assay: Growth inhibition of human SF-295 cells assessed as cell growth at 100 uM incubated for 48 hrs by sulforhodamine B assay relative to control; conditions: read-out: Activity
K562 = assay: Growth inhibition of human K562 cells assessed as cell growth at 1 uM incubated for 48 hrs by sulforhodamine B assay relative to control; conditions: read-out: Activity
EKVX = assay: Growth inhibition of human EKVX cells assessed as cell growth at 1 uM incubated for 48 hrs by sulforhodamine B assay relative to control; conditions: read-out: Activity
OVCAR-3 [10] = assay: Growth inhibition of human OVCAR-3 cells assessed as cell growth at 0.1 uM incubated for 48 hrs by sulforhodamine B assay relative to control; conditions: read-out: Activity
BT-549 [11] = assay: Growth inhibition of human BT-549 cells assessed as cell growth at 100 uM incubated for 48 hrs by sulforhodamine B assay relative to control; conditions: read-out: Activity
ACHN = assay: Growth inhibition of human ACHN cells assessed as cell growth at 1 uM incubated for 48 hrs by sulforhodamine B assay relative to control; conditions: read-out: Activity
CCRF-CEM [12] = assay: Growth inhibition of human CCRF-CEM cells assessed as cell growth at 0.01 uM incubated for 48 hrs by sulforhodamine B assay relative to control; conditions: read-out: Activity
RPMI-8226 = assay: Growth inhibition of human RPMI-8226 cells assessed as cell growth at 1 uM incubated for 48 hrs by sulforhodamine B assay relative to control; conditions: read-out: Activity
MDA-MB-435 [13] = assay: Growth inhibition of human MDA-MB-435 cells assessed as cell growth at 1 uM incubated for 48 hrs by sulforhodamine B assay relative to control; conditions: read-out: Activity
786-0 = assay: Growth inhibition of human 786-0 cells incubated for 48 hrs by sulforhodamine B assay
U-251 = assay: Growth inhibition of human U-251 cells assessed as cell growth at 1 uM incubated for 48 hrs by sulforhodamine B assay relative to control; conditions: read-out: Activity
LOX IMVI = assay: Growth inhibition of human LOX IMVI cells assessed as cell growth at 100 uM incubated for 48 hrs by sulforhodamine B assay relative to control; conditions: read-out: Activity
A498 = assay: Growth inhibition of human A498 cells assessed as cell growth at 1 uM incubated for 48 hrs by sulforhodamine B assay relative to control; conditions: read-out: Activity
CCRF-CEM [14] = assay: Growth inhibition of human CCRF-CEM cells incubated for 48 hrs by sulforhodamine B assay
SN12C = assay: Growth inhibition of human SN12C cells incubated for 48 hrs by sulforhodamine B assay
[15] = read-out: LC50 (the source's name)
[16] = read-out: pLC50 (the source's name) (converted)

## CC(=O)Nc1cc(CO[Si](C)(C)C(C)(C)C)cc(NC(=O)c2ccc(C(=O)Nc3cccc(NC(=O)CCCN(C)C)c3)cc2)c1
SK-MEL-28
  growth at 1 µM: 98%
PC-3 [1]
  growth at 0.1 µM: 97%
HCT-116
  growth at 0.01 µM: 104%
OVCAR-5
  growth at 1 µM: 89%
OVCAR-3 [2]
  growth at 100 µM: 105%
PC-3 [3]; read-out: GI50
  GI50: > 75 µM
PC-3 [3]; [15]
  CC50: > 75 µM
PC-3 [3]; read-out: TGI
  TGI: > 75 µM
PC-3 [3]; read-out: pGI50 (converted)
  GI50: > 75.9 µM
PC-3 [3]; [16]
  CC50: > 75.9 µM
PC-3 [3]; read-out: pTGI
  TGI: > 75.9 µM
IGROV-1 [4]
  growth at 1 µM: 81%
SR [5]
  growth at 1 µM: 94%
CAKI-1; read-out: GI50
  GI50: > 75 µM
CAKI-1; [15]
  CC50: > 75 µM
CAKI-1; read-out: TGI
  TGI: > 75 µM
CAKI-1; read-out: pGI50 (converted)
  GI50: > 75.9 µM
CAKI-1; [16]
  CC50: > 75.9 µM
CAKI-1; read-out: pTGI
  TGI: > 75.9 µM
KM12
  growth at 100 µM: 88%
SR [6]
  growth at 0.1 µM: 103%
NCI-H322M
  growth at 0.01 µM: 102%
IGROV-1 [7]
  growth at 0.01 µM: 99%
MDA-MB-435 [8]
  growth at 0.01 µM: 98%
DU-145
  growth at 1 µM: 88%
BT-549 [9]
  growth at 0.1 µM: 93%
SNB-19
  growth at 0.1 µM: 96%
SF-268
  growth at 0.01 µM: 99%
T47D
  growth at 100 µM: 58%
NCI-H226
  growth at 100 µM: 87%
SK-OV-3
  growth at 100 µM: 93%
MCF7
  growth at 0.1 µM: 101%
SF-295
  growth at 100 µM: 88%
K562
  growth at 1 µM: 95%
EKVX
  growth at 1 µM: 89%
OVCAR-3 [10]
  growth at 0.1 µM: 109%
BT-549 [11]
  growth at 100 µM: 86%
ACHN
  growth at 1 µM: 98%
CCRF-CEM [12]
  growth at 0.01 µM: 97%
RPMI-8226
  growth at 1 µM: 110%
MDA-MB-435 [13]
  growth at 1 µM: 94%
786-0; read-out: GI50
  GI50: > 75 µM
786-0; read-out: LC50
  LC50: > 75 µM
786-0; read-out: TGI
  TGI: > 75 µM
786-0; read-out: pGI50 (converted)
  GI50: > 75.9 µM
786-0; read-out: pLC50 (converted)
  LC50: > 75.9 µM
786-0; read-out: pTGI
  TGI: > 75.9 µM
U-251
  growth at 1 µM: 91%
LOX IMVI
  growth at 100 µM: 84%
A498
  growth at 1 µM: 48%
CCRF-CEM [14]; read-out: GI50
  GI50: > 75 µM
CCRF-CEM [14]; [15]
  CC50: > 75 µM
CCRF-CEM [14]; read-out: TGI
  TGI: > 75 µM
CCRF-CEM [14]; read-out: pGI50 (converted)
  GI50: > 75.9 µM
CCRF-CEM [14]; [16]
  CC50: > 75.9 µM
CCRF-CEM [14]; read-out: pTGI (converted)
  TGI: > 75.9 µM
SN12C; read-out: GI50
  GI50: > 75 µM
SN12C; [15]
  CC50: > 75 µM
SN12C; read-out: TGI
  TGI: > 75 µM
SN12C; read-out: pGI50 (converted)
  GI50: > 75.9 µM
SN12C; [16]
  CC50: > 75.9 µM
SN12C; read-out: pTGI
  TGI: > 75.9 µM

## CC(=O)Nc1cc(CCl)cc(NC(=O)c2ccc(C(=O)Nc3cccc(NC(=O)CCCN(C)C)c3)cc2)c1
SK-MEL-28
  growth at 1 µM: 96%
PC-3 [1]
  growth at 0.1 µM: 103%
HCT-116
  growth at 0.01 µM: 109%
OVCAR-5
  growth at 1 µM: 83%
OVCAR-3 [2]
  growth at 100 µM: 105%
PC-3 [3]; read-out: GI50
  GI50: > 100 µM
PC-3 [3]; [15]
  CC50: > 100 µM
PC-3 [3]; read-out: TGI
  TGI: > 100 µM
PC-3 [3]; read-out: pGI50 (converted)
  GI50: > 100 µM
PC-3 [3]; [16]
  CC50: > 100 µM
PC-3 [3]; read-out: pTGI
  TGI: > 100 µM
IGROV-1 [4]
  growth at 1 µM: 110%
SR [5]
  growth at 1 µM: 118%
CAKI-1; read-out: GI50
  GI50: > 100 µM
CAKI-1; [15]
  CC50: > 100 µM
CAKI-1; read-out: TGI
  TGI: > 100 µM
CAKI-1; read-out: pGI50 (converted)
  GI50: > 100 µM
CAKI-1; [16]
  CC50: > 100 µM
CAKI-1; read-out: pTGI
  TGI: > 100 µM
KM12
  growth at 100 µM: 88%
SR [6]
  growth at 0.1 µM: 107%
NCI-H322M
  growth at 0.01 µM: 106%
IGROV-1 [7]
  growth at 0.01 µM: 113%
MDA-MB-435 [8]
  growth at 0.01 µM: 96%
DU-145
  growth at 1 µM: 106%
BT-549 [9]
  growth at 0.1 µM: 103%
SNB-19
  growth at 0.1 µM: 104%
SF-268
  growth at 0.01 µM: 100%
T47D
  growth at 100 µM: 71%
NCI-H226
  growth at 100 µM: 87%
SK-OV-3
  growth at 100 µM: 109%
MCF7
  growth at 0.1 µM: 87%
SF-295
  growth at 100 µM: 38%
K562
  growth at 1 µM: 96%
EKVX
  growth at 1 µM: 81%
OVCAR-3 [10]
  growth at 0.1 µM: 108%
BT-549 [11]
  growth at 100 µM: 94%
ACHN
  growth at 1 µM: 96%
CCRF-CEM [12]
  growth at 0.01 µM: 107%
RPMI-8226
  growth at 1 µM: 116%
MDA-MB-435 [13]
  growth at 1 µM: 97%
786-0; read-out: GI50
  GI50: > 100 µM
786-0; read-out: LC50
  LC50: > 100 µM
786-0; read-out: TGI
  TGI: > 100 µM
786-0; read-out: pGI50 (converted)
  GI50: > 100 µM
786-0; read-out: pLC50 (converted)
  LC50: > 100 µM
786-0; read-out: pTGI
  TGI: > 100 µM
U-251
  growth at 1 µM: 93%
LOX IMVI
  growth at 100 µM: 75%
A498
  growth at 1 µM: 73%
CCRF-CEM [14]; read-out: GI50
  GI50: 22.4 µM
CCRF-CEM [14]; [15]
  CC50: 78.2 µM
CCRF-CEM [14]; read-out: TGI
  TGI: 41.8 µM
CCRF-CEM [14]; read-out: pGI50 (converted)
  GI50: 22.4 µM
CCRF-CEM [14]; [16]
  CC50: 77.6 µM
CCRF-CEM [14]; read-out: pTGI (converted)
  TGI: 41.7 µM
SN12C; read-out: GI50
  GI50: > 100 µM
SN12C; [15]
  CC50: > 100 µM
SN12C; read-out: TGI
  TGI: > 100 µM
SN12C; read-out: pGI50 (converted)
  GI50: > 100 µM
SN12C; [16]
  CC50: > 100 µM
SN12C; read-out: pTGI
  TGI: > 100 µM
